Consider 23 compounds from patent US6803371B2, “Purine inhibitors of protein kinases, G proteins and polymerases” (The Regents of the University of California, priority 1997, dated 2004).

pIC50: −log10 of the molar value.

In assay [1] the target is cdc2/cyclinB. As to the kind of experiment: cdc2/cyclinB kinase inhibition. Format: biochemical.
The target of assay [2] is erk1 (Homo sapiens, UniProt P27361). As to the kind of experiment: erk1 kinase inhibition. The note with it: read-out: IC50 (additional kinases) erk1. It counts as biochemical.
Chain of erk1 (P27361 whole entry, species assumed): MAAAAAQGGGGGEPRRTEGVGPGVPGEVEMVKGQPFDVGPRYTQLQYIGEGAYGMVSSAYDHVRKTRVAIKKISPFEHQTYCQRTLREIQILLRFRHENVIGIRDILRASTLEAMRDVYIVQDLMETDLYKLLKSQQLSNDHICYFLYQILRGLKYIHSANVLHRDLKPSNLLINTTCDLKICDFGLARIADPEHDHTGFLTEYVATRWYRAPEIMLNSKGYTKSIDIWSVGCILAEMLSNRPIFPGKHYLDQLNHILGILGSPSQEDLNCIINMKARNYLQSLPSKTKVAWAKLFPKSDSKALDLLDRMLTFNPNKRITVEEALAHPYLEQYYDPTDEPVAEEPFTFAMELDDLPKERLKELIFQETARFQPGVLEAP

`COc1ccc(CNc2nc(N(CC(C)O)CC(C)O)nc3c2ncn3C(C)C)cc1` (stereo not shown) [NG-16]: the negative-log IC50 (pIC50) in assay [1] was 6.62; in assay [2] it was 4.30. Take `CC[C@H](CO)Nc1nc(NCc2ccc(OC)cc2)c2ncn(C(C)C)c2n1` [NG-33]: in assay [2], the pIC50 is below 5.00.

Turning to `COc1ccc(CNc2nc(N[C@@H](CO)CC(C)C)nc3c2ncn3C(C)C)cc1` [NG-36], the pIC50 was 7.00 in assay [1] and below 5.00 in assay [2]. In assay [1], `CC(C)n1cnc2c(Nc3ccccc3)nc(NCCO)nc21` [NG-42] had a pIC50 of 5.37. Still for that read-out and setting: the same measure for `CC(C)n1cnc2c(Nc3ccccc3Cl)nc(NCCO)nc21` [NG-43]: 5.37; for `CC(C)n1cnc2c(Nc3cccc(Br)c3)nc(NCCO)nc21` [NG-45]: 6.57; for `COc1ccccc1Nc1nc(NCCO)nc2c1ncn2C(C)C` [NG-46]: 5.05. The same measure, in the same setting: to `CC(C)n1cnc2c(Nc3ccc4ccccc4c3)nc(NCCO)nc21` [NG-47] belongs 6.37; to `COc1ccc(CNc2nc(N(CCO)Cc3ccccc3)nc3c2ncn3C(C)C)cc1` [NG-49], 5.55; to `COc1ccc(CNc2nc(NCC(O)c3ccccc3)nc3c2ncn3C(C)C)cc1` (stereo not shown) [NG-50], 5.55. `CC(C)n1cnc2c(Nc3cccc(C(F)(F)F)c3)nc(NCCO)nc21` [NG-51] showed a negative logarithm of the IC50 (pIC50) in assay [1] of 6.38.

As to `CC(C)n1cnc2c(Nc3cccc(Cl)c3)nc(NCCO)nc21` [NG-52], in assay [1], the negative-log IC50 (pIC50) is 6.66. The same measure, in the same setting: the same measure for `CC(C)n1cnc2c(Nc3ccccc3C(F)(F)F)nc(NCCO)nc21` [NG-53]: 5.00; for `CC(C)n1cnc2c(Nc3ccc(Cl)cc3Cl)nc(NCCO)nc21` [NG-54]: 5.57; for `CC(C)C(CO)Nc1nc(Nc2cc(Cl)cc(Cl)c2)c2ncn(C(C)C)c2n1` (stereo not shown) [NG-57]: 6.40.

Regarding `CC(C)n1cnc2c(Nc3cccc(Cl)c3)nc(N[C@H](CO)c3ccccc3)nc21` [NG-59], the pIC50 in assay [1] was 6.10. Still for that read-out and setting: to `CC(C)n1cnc2c(Nc3cccc(Cl)c3)nc(N[C@H](CO)C(C)(C)C)nc21` [NG-61] belongs 5.64; to `CCC(C)[C@@H](CO)Nc1nc(Nc2cccc(Cl)c2)c2ncn(C(C)C)c2n1` (stereo partly shown) [NG-62], 6.30. Still for that read-out and setting: the same measure for `CC(C)n1cnc2c(Nc3cccc(F)c3)nc(NCCO)nc21` [NG-65]: 6.40; for `CC(C)[C@H](CO)Nc1nc(Nc2ccc(O)c(C(=O)O)c2)c2ncn(C(C)C)c2n1` [NG-94]: around 7.00. Still for that read-out and setting: to `CC(C)[C@H](CO)Nc1nc(Nc2ccc(Cl)c(C(=O)O)c2)c2ncn(C(C)C)c2n1` [NG-96] belongs around 7.52; to `CC(C)[C@H](CO)Nc1nc(Nc2cc(N)cc(Cl)c2)c2ncn(C(C)C)c2n1` [NG-97], 7.52; to `CC(C)[C@H](CO)Nc1nc(Nc2ccc(Cl)c(N)c2)c2ncn(C(C)C)c2n1` [NG-98], 7.52.

In general, pIC50 refers to the IC50 on a negative log10 scale, so that one unit is a factor of ten.
